The species named for data set [1] is Homo sapiens. Nature of the data set: Selectivity ratio of IC50 for PKCbeta2 (unknown origin) to IC50 for GSK3-beta (unknown origin).
Data set [2] is described as follows: Inhibition of GSK-3beta (unknown origin).
Data set [3] deals with T1, Glycogen synthase kinase-3 beta (Homo sapiens, UniProt P49841). Nature of the data set: Inhibition of human GSK3beta using YRRAAVPPSPSLSRHSSPHQS(PO4)EDEEE-NH2 as substrate after 60 mins in presence of [33gammaP]-ATP by topcount method.
Target sequence in this assay (P49841 whole entry): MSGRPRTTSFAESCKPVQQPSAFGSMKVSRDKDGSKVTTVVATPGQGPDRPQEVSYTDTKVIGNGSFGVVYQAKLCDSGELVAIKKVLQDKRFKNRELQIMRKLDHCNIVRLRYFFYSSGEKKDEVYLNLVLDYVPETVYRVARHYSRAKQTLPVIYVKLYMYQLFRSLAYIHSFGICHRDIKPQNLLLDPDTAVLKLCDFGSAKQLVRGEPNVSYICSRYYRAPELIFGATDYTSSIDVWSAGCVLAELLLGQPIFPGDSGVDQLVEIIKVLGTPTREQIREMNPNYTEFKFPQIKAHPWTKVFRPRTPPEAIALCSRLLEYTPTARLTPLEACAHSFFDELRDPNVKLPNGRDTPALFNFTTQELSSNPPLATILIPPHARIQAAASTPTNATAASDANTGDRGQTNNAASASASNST
Data set [4] addresses Glycogen synthase kinase 3 beta (Sus scrofa, UniProt B2LUN4). Kind of data set: Inhibition of pig brain GSK3beta using GS1 as substrate after 30 mins.
Data set [5] can be described thus: Inhibition of recombinant rabbit GSK-3beta assessed as decrease in PPI-2 phosphorylation in presence of 33P-ATP after 90 mins by topcount scintillation counting. Further details: species or system Oryctolagus cuniculus.
The target of data set [6] is T1, Glycogen synthase kinase-3 beta. Nature of the data set: Inhibition of recombinant GSK3-beta (unknown origin) assessed as decrease in phosphorylation of CREB at serine-129 in presence of ATP[gamma-33P] by filter binding assay.
Target sequence in this assay (P49841 whole entry): as above
The nature of data set [7]: Oral bioavailability in Zucker fa/fa rat at 10 mg/kg. In kind it is ADME, organism-based. The conditions noted are these: in vivo.
In data set [8] the test system is MCF7. Kind of data set: Cytotoxicity against human MCF7 cells assessed as reduction in cell viability after 68 hrs by MTT assay. In kind it is functional, cell-based. The conditions noted are these: MCF7, 68 h.
For data set [9], the target named is T2, Glycogen synthase kinase-3 alpha (Homo sapiens, UniProt P49840). Kind of data set: Inhibition of human GSK3alpha.
In data set [10] the target is T2, Glycogen synthase kinase-3 alpha. Nature of the data set: Inhibition of human GSK3alpha using biotin-Ahx-AAAKRREILSRRP-S(PO3)YR-amide as substrate after 40 mins in presence of [33gammaP]-ATP by SPA.
Data set [11] relates to HT-29. Nature of the data set: Cytotoxicity against human HT-29 cells at 20 uM after 2 days by MTT assay relative to control. It counts as functional. In general terms: Formazan colour is commonly taken as a measure of viable cells.
Data set [12] has as its target T1, Glycogen synthase kinase-3 beta. Kind of data set: Inhibition of GSK3beta (unknown origin) at 20 uM using FITC-RRRRAAEELDSRAGS(PO4)PQL as substrate after 10 mins by capillary electrophoresis relative to control.
Target sequence in this assay (P49841 whole entry, looked up): as the sequence (P49841 whole entry) above

T2 sequence (P49840 whole entry): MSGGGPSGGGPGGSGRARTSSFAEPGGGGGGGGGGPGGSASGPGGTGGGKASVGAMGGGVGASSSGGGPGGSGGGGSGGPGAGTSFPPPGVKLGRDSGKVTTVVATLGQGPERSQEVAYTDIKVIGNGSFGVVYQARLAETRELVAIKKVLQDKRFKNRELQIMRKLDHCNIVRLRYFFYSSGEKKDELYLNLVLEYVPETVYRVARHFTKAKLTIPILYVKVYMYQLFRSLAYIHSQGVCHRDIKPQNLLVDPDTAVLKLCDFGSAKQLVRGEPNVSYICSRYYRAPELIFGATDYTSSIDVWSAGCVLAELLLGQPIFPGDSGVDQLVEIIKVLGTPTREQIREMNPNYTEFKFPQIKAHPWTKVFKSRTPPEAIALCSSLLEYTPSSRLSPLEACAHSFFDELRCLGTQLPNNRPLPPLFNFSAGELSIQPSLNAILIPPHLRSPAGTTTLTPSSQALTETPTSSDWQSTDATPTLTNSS
Sequence of Glycogen synthase kinase 3 beta (B2LUN4 whole entry): as the sequence (P49841 whole entry) above, with V40M, T59A, T392S, A400T, T402A, A411T counted along it

In general, IC50 refers to the concentration needed to halve the response being measured. For the compound `COc1ccccc1C1=C(c2cn(CCCNC(=O)OC(C)(C)C)c3ncccc23)C(=O)NC1=O`, in data set [1], the Ratio IC50 was determined as 325. In data set [2], half-maximal inhibition (IC50) required 7 nM. Turning to `CCNC(=O)c1nnn(-c2nonc2N)c1CN1CCCCC1`, in data set [3], the IC50 came out at 280 nM. In [4], `CCOC(=O)c1c2[nH]c3ccccc3c2c(-c2ccc(NC(=O)CCN(C)C)cc2)c2c(=O)[nH][s+]([O-])c12` (configuration not stated) showed an IC50 of 2800 nM.

For the compound `O=C1NC(=O)C(c2cn(CCCO)c3ncccc23)=C1c1cnccn1`, the IC50 in data set [5] was 25 nM. The bioavailability is dose-corrected exposure relative to a reference, in per cent. For the compound `O=CN1Cc2cc(F)cc3c(C4=C(c5cnc6ccccn56)C(=O)NC4=O)cn(c23)CC1N1CCCCC1` (configuration not stated), in data set [6], the IC50 is 1.1 nM. In [7], this compound gave a bioavailability of 23%.

For the compound `O=C1NC(=O)C(c2cn(CCCO)c3ncccc23)=C1c1ncc(C(F)(F)F)cc1Cl`, the Ratio IC50 in data set [1] was greater than 385. In data set [2], half-maximal inhibition (IC50) required 26 nM. Take `Oc1ccc2c(c1)OC[C@]1(O)Cc3cc(O)c(O)cc3[C@H]21` [BRAZILIN]: the IC50 in data set [8] was 7.23 µM. In data set [9], `CCCCC(=O)Nc1n[nH]c2nnc(-c3ccccc3)cc12` yielded an IC50 of 4 nM.

For `O=CN1Cc2cccc3c(C4=C(c5cnc6ccccn56)C(=O)NC4=O)cn(c23)CC1N1CCOCC1` (configuration not stated), the IC50 in data set [6] was 1.3 nM. On to `O=C1NC(=O)C2=C1c1cn(c3ncccc13)CCOCCOCCOCCn1cc2c2cccnc21`, for which the IC50 in data set [5] stood at 17 nM. Take `Cc1ccc2ncc(C3=C(c4cn5c6c(cccc46)CN(C=O)C(N4CCCCC4)C5)C(=O)NC3=O)n2c1` (configuration not stated): the IC50 in data set [6] is 5.2 nM. In addition, the bioavailability in data set [7] came to 45%. As for `CN(C)C1Cn2cc(C3=C(c4cnc5ccccn45)C(=O)NC3=O)c3cccc(c32)CN1C=O` (configuration not stated), the IC50 in data set [6] came out at 1.6 nM. On to `Fc1ccc(/C=N/Nc2ncnc3c2cnn3-c2ccccc2)cc1`, for which the IC50 in data set [10] is 6.2 nM. A word on the inhibition: it is the share of the control response that was lost under treatment. Lower therefore signals a weak effect. Take `O=C1Nc2ccccc2C1=Cc1cc(CN2CCN(c3ccccc3Cl)CC2)on1`: in data set [11], the Activity was found to be 78%. This compound also yielded an inhibition in data set [12] of 72%. Consider `O=CN1Cc2cccc3c(C4=C(c5cnc6ccccn56)C(=O)NC4=O)cn(c23)CC1N1CCCCC1` (configuration not stated), for which the IC50 in [6] is 2 nM. For `O=C1NC(=O)C2=C1c1cn(c3ncccc13)CCCCC(O)CCCCn1cc2c2cccnc21`, the IC50 in data set [5] was found to be 11 nM. In the case of `CC(C)OC1Cn2cc(C3=C(c4cnc5ccccn45)C(=O)NC3=O)c3cccc(c32)CN1C=O` (configuration not stated), the IC50 in data set [6] is 1.3 nM.

The values are drawn from ChEMBL document CHEMBL4145467, “Glycogen synthase kinase-3 and its inhibitors: Potential target for various therapeutic conditions” (Eur J Med Chem, 2018).
